From patent publication US7074789B2, “Kinase inhibitors” (Amgen Inc., priority 1999, dated 2006)
Several values for one entry are separate records, joined by “and”; a condition that tells them apart may be missing. Identical values can stand only once.

Experiments:
Assay type in all cases: biochemical
AKT = target: T1, AKT (Homo sapiens, UniProt Q9Y243); assay: Kinase inhibition assay (33P transfer), AKT; settings: Table 2, kinase inhibition class; read-out: AKT3-1
T1 construct: Kinases are expressed as either kinase domains or full length constructs; made in house
Procedure, shortened: (§1)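 Kinase domains or full-length kinases, GST- or His-tagged and expressed in E. coli or baculovirus/High Five cells, transferred 33PO4 from ATP onto plate-bound poly(Glu,Tyr) 4:1 or poly(Arg,Ser) 3:1. After incubation, plates were washed with 0.5% phosphoric acid and counted by liquid scintillation.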

Zap-70 = target: T2, Zap-70 (Homo sapiens, UniProt P43403); assay: Kinase inhibition assay (33P transfer), Zap-70; settings: read-out: Zap-1
T2 construct: Kinases are expressed as either kinase domains or full length constructs; made in house
T2 sequence (P43403 1-619): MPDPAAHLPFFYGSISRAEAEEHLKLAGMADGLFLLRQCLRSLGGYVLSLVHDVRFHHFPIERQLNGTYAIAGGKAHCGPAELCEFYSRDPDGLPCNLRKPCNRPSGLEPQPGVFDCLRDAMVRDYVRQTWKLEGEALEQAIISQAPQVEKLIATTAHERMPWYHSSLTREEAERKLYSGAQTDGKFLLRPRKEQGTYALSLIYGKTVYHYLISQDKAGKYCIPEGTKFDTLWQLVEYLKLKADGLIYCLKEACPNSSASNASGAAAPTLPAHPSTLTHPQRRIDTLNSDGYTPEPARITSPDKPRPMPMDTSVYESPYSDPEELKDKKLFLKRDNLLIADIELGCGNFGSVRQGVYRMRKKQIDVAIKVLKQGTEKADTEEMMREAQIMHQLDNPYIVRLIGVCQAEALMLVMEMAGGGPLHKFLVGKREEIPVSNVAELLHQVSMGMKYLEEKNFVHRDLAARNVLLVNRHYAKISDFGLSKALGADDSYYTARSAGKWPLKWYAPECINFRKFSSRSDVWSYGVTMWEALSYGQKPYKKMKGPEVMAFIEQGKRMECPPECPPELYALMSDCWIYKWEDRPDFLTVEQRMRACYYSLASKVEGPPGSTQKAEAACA
Procedure, shortened: as §1

Lck = target: T3, Lck (Homo sapiens, UniProt P06239); assay: Kinase inhibition assay (33P transfer), Lck; settings: read-out: Lck-1
T3 construct: Kinases are expressed as either kinase domains or full length constructs; made in house
Procedure, shortened: as §1

Kdr = target: T4, Kdr (Homo sapiens, UniProt P35968); assay: Kinase inhibition assay (33P transfer), Kdr; settings: read-out: KDR-1
T4 construct: Kinases are expressed as either kinase domains or full length constructs; made in house
Procedure, shortened: as §1

PDGFRB = target: T5, PDGFRB (Homo sapiens, UniProt P09619); assay: Kinase inhibition assay (33P transfer), PDGFRB; settings: read-out: PDGFRB-1
T5 construct: Kinases are expressed as either kinase domains or full length constructs; made in house

IGFR-1 = target: T6, IGFR-1 (Homo sapiens, UniProt P08069); assay: Kinase inhibition assay, IGFR-1 (Table 2); settings: Table 2, kinase inhibition class
T6 construct: Kinases are expressed as either kinase domains or full length constructs; made in house

c-Met = target: T7, c-Met (Homo sapiens, UniProt P08581); assay: Kinase inhibition assay (33P transfer), c-Met; settings: Table 2, kinase inhibition class; read-out: Met-1
T7 construct: Kinases are expressed as either kinase domains or full length constructs; made in house
Procedure, shortened: (§2)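 Using immobilised substrate copolymers (poly(Glu,Tyr) 4:1; poly(Arg,Ser) 3:1) and [33P]ATP, purified fusion kinases were allowed to react; plates were then rinsed in 0.5% phosphoric acid and counted in a scintillation detector. Half-maximal inhibition of label transfer defines IC50.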

ErbB2 = target: T8, ErbB2 (Homo sapiens, UniProt P04626); assay: Kinase inhibition assay (33P transfer), ErbB2; settings: read-out: ErbB2-2
T8 construct: Kinases are expressed as either kinase domains or full length constructs; made in house
Procedure, shortened: as §2

Itk = target: T9, Itk (Homo sapiens, UniProt Q08881); assay: Kinase inhibition assay (33P transfer), Itk; settings: read-out: Itk-1
T9 construct: Kinases are expressed as either kinase domains or full length constructs; made in house
T9 sequence (Q08881 1-620): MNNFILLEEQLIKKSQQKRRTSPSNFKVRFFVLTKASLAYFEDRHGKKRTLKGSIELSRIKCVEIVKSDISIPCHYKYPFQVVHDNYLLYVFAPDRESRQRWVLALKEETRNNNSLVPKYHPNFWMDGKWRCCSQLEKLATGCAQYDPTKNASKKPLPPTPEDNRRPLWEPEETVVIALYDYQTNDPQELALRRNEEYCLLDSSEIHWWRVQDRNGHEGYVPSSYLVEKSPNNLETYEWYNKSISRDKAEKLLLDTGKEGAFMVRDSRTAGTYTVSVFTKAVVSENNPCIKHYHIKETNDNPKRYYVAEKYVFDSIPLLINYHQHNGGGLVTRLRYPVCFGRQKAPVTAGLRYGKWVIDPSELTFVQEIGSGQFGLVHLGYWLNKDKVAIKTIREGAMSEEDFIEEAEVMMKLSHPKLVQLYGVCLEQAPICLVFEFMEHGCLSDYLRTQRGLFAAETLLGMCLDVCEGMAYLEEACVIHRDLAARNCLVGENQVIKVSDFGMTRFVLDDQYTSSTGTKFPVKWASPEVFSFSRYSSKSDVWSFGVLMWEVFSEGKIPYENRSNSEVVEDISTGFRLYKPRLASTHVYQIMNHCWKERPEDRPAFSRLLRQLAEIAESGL
Procedure, shortened: as §2

EGFR = target: T10, EGFR (Homo sapiens, UniProt P00533); assay: Kinase inhibition assay (33P transfer), EGFR; settings: Table 2, kinase inhibition class; read-out: EGFR-1
T10 construct: Kinases are expressed as either kinase domains or full length constructs; made in house
Procedure, shortened: as §2

T8 sequence (P04626 23-1255, species assumed): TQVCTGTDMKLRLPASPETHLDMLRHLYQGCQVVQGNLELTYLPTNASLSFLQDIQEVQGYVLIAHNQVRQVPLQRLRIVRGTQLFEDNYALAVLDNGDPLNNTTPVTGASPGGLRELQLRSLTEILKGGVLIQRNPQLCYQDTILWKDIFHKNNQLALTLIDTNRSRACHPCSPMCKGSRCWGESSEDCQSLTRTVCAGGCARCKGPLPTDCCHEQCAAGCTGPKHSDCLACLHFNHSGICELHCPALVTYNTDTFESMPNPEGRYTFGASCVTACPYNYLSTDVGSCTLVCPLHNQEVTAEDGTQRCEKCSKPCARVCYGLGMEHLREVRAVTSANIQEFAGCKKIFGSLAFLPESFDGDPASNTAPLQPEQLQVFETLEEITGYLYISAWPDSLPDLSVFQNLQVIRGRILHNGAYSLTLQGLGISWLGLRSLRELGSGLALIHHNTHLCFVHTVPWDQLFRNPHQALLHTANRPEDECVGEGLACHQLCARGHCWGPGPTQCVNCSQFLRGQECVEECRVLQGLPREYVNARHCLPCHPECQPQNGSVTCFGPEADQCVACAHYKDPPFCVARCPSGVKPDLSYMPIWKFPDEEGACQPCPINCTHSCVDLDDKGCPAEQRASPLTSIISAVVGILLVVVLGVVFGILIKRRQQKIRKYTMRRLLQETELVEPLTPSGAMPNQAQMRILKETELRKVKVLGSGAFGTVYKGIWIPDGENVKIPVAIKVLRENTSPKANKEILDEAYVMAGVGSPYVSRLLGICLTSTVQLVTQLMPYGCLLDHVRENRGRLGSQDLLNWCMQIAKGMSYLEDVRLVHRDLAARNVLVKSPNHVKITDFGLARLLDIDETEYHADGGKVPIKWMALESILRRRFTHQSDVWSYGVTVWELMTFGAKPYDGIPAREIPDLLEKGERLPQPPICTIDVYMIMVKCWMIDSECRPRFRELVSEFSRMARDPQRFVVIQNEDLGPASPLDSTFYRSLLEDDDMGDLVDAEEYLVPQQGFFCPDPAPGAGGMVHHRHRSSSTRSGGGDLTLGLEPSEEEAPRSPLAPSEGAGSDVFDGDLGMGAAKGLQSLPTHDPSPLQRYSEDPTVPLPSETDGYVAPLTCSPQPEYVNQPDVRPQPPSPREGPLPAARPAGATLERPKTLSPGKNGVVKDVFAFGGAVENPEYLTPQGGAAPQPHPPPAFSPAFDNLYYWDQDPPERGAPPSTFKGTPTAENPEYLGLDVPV
T1 sequence (Q9Y243 whole entry, the tested form may be a part): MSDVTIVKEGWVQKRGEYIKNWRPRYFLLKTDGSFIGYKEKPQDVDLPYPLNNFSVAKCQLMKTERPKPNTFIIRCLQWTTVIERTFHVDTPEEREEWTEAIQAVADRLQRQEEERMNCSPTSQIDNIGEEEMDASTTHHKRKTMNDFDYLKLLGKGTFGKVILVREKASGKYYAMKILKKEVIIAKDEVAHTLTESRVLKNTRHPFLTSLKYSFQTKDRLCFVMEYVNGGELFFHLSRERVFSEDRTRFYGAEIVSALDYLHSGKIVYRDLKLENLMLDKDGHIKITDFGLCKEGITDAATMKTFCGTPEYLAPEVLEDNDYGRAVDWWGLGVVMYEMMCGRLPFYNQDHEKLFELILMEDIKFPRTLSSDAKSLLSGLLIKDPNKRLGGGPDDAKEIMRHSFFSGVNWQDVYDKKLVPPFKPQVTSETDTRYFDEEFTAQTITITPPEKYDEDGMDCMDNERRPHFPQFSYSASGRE
T7 sequence (P08581 25-1390): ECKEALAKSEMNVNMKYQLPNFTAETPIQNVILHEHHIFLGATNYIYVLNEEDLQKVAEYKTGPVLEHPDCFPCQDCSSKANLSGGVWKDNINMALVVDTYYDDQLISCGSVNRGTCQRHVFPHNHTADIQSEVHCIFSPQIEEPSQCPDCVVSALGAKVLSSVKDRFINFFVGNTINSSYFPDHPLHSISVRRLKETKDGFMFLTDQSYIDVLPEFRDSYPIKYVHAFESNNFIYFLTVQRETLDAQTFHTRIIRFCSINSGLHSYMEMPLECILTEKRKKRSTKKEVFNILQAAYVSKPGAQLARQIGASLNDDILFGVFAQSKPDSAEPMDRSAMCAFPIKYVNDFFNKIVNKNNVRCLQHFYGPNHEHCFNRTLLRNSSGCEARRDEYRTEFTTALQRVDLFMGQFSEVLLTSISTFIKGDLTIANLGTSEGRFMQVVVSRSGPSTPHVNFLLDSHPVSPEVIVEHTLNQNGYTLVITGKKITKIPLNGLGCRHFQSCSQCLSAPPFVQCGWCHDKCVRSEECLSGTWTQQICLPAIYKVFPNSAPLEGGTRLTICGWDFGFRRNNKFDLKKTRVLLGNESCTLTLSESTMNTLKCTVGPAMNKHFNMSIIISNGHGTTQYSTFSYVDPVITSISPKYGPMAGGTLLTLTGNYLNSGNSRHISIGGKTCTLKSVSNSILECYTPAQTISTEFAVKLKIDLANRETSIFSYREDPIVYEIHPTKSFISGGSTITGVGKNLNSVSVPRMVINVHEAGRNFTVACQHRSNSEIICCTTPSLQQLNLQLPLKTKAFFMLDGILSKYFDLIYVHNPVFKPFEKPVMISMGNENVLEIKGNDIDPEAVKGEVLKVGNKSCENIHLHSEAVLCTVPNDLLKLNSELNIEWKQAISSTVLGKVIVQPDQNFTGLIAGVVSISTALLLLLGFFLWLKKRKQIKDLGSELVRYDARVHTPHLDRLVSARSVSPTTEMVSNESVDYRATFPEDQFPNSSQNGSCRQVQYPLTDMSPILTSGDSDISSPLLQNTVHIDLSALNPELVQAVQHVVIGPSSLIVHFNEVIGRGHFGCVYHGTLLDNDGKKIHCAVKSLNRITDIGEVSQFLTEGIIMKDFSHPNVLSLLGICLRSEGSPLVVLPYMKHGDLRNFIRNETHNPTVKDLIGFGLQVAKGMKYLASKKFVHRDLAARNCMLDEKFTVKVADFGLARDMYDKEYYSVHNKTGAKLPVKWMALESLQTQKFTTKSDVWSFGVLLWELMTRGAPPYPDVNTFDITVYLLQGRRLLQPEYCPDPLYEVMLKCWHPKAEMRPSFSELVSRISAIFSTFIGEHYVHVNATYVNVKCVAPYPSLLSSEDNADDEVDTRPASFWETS
T3 sequence (P06239 whole entry, species assumed, the tested form may be a part): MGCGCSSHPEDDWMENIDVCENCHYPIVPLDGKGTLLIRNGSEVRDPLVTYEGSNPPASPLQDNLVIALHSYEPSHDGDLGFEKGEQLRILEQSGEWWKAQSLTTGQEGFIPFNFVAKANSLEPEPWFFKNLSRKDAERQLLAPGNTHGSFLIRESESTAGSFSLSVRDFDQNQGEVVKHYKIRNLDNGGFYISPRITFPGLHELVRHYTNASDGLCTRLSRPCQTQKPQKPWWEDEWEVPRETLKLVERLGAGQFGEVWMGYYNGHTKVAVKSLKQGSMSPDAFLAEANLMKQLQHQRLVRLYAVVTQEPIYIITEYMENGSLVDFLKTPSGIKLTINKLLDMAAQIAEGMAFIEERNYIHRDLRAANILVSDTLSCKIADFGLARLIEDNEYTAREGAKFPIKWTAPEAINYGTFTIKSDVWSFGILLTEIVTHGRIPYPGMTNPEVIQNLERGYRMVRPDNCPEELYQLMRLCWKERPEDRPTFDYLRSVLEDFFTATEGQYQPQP
T4 sequence (P35968 20-1356, species assumed): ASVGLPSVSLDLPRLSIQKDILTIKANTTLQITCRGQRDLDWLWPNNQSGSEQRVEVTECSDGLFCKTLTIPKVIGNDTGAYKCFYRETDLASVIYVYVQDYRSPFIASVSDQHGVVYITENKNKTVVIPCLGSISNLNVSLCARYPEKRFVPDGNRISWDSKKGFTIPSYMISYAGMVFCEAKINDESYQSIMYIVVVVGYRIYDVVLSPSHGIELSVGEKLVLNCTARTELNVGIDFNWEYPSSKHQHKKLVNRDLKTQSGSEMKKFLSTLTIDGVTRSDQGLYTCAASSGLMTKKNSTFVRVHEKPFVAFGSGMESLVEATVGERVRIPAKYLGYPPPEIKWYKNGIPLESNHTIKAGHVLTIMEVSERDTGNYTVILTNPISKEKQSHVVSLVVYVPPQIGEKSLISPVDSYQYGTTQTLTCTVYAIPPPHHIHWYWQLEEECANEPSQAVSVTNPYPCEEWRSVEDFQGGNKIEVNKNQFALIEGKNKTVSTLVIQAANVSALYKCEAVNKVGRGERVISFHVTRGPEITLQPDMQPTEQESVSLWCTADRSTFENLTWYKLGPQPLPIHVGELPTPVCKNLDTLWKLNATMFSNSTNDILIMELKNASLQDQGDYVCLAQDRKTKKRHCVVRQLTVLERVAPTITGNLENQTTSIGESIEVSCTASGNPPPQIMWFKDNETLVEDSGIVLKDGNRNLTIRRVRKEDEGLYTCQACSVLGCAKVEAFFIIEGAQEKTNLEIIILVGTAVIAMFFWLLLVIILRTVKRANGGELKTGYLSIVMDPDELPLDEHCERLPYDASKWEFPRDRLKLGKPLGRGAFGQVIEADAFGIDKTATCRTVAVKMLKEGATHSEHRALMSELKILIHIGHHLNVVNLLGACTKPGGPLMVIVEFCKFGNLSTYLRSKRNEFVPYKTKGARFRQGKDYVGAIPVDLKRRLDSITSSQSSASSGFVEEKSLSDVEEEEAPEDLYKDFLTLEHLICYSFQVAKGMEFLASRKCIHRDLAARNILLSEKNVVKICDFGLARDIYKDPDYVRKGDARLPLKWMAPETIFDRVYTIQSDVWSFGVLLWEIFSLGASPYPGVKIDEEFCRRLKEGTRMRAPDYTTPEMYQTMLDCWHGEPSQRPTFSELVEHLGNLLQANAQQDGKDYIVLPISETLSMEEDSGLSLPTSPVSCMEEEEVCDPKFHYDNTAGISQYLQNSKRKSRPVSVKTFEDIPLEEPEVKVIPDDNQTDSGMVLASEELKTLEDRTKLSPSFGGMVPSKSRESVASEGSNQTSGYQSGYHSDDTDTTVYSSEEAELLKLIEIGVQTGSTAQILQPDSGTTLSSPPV

IC50 (AKT) | IC50 (Zap-70) | IC50 (Lck) | IC50 (Kdr) | IC50 (PDGFRB) | IC50 (IGFR-1) | IC50 (c-Met) | IC50 (ErbB2) | IC50 (Itk) | IC50 (EGFR) | SMILES
> 9.5 µM | > 9.5 µM | 0.845 to 5.07 µM | 5.07 to 7.39 µM | 0.845 to 5.07 µM | 0.845 to 5.07 µM | > 9.5 µM | > 9.5 µM | 0.845 to 5.07 µM | > 9.5 µM | COc1cc(Nc2ncnc(-n3c(NCc4ncc[nH]4)nc4ccccc43)n2)cc(OC)c1OC [Compound 583]
> 8.8 µM | > 8.8 µM | 0.782 to 4.69 µM | 0.782 to 4.69 µM | > 8.8 µM | > 8.8 µM | 6.84 to 8.8 µM | 4.69 to 6.84 µM and 0.782 to 4.69 µM | > 8.8 µM | 4.69 to 6.84 µM | COc1cc(Nc2ncnc(-n3c(NCc4ccc(C)cc4C)nc4ccccc43)n2)cc(OC)c1OC [Compound 584]
> 8.64 µM | > 8.64 µM | > 8.64 µM | 4.61 to 6.72 µM | 0.768 to 4.61 µM | 6.72 to 8.64 µM | > 8.64 µM | 0.768 to 4.61 µM | > 8.64 µM | > 8.64 µM | COc1cc(Nc2ncnc(-n3c(Nc4cccc5cccnc45)nc4ccccc43)n2)cc(OC)c1OC [Compound 588]
> 9.21 µM | > 9.21 µM | 0.819 to 4.91 µM | 0.819 to 4.91 µM | > 9.21 µM | < 0.819 µM | 7.17 to 9.21 µM | 4.91 to 7.17 µM | 4.91 to 7.17 µM | 4.91 to 7.17 µM | COc1cc(Nc2ncnc(Nc3cc(-c4ccc(Cl)c(Cl)c4)n[nH]3)n2)cc(OC)c1OC [Compound 589]
4.55 to 6.63 µM | > 8.53 µM | 6.63 to 8.53 µM | 0.758 to 4.55 µM | 6.63 to 8.53 µM | > 8.53 µM | > 8.53 µM | 0.758 to 4.55 µM | > 8.53 µM | > 8.53 µM | COc1cc(Nc2ncnc(-n3c(NCc4ccc5c(c4)OCO5)nc4ccccc43)n2)cc(OC)c1OC [Compound 595]
